Experimental findings from ChEMBL document CHEMBL6134887, “Linker and Head-Group Exploration of Anti-MRSA Triaromatic Pleuromutilins” (J Med Chem, 2025) are described below.

One may read the half-life as the time needed for the level to fall by half in the phase considered.

Data set [1] relates to Enterococcus faecium. The data set is described as follows: Antibacterial activity against vancomycin, ampicillin and ciprofloxacin resistant Enterococcus faecium clinical isolate 1 assessed as inhibition of bacterial growth incubated for 20 to 24 hrs by microbroth serial dilution method. The note with it: time 20-24 hrs, read-out: MIC100. Type of data set: functional.
For another data set, the system named is Streptococcus pneumoniae. The experiment in a line: Antibacterial activity against Streptococcus pneumoniae assessed as inhibition of bacterial growth incubated for 20 to 24 hrs by microbroth serial dilution method. Type of data set: functional. The note with it: time 20-24 hrs, read-out: MIC100. In general terms: Dilution methods test growth across graded concentrations, often in twofold steps.

For another data set, the system named is Enterococcus faecalis. The experiment in a line: Antibacterial activity against Enterococcus faecalis assessed as inhibition of bacterial growth incubated for 20 to 24 hrs by microbroth serial dilution method. Type of data set: functional. The following applies: time 20-24 hrs, read-out: MIC100.
For data set [2], the system named is Enterococcus faecium. The data set is described as follows: Antibacterial activity against vancomycin, ampicillin and ciprofloxacin resistant Enterococcus faecium clinical isolate 5 assessed as inhibition of bacterial growth incubated for 20 to 24 hrs by microbroth serial dilution method. Type of data set: functional. The note with it: time 20-24 hrs, read-out: MIC100.

Data set [3] has as its system Staphylococcus aureus. The experiment in a line: Antibacterial activity against methicillin resistant Staphylococcus aureus USA300 FPR3757 assessed as inhibition of bacterial growth incubated for 20 to 24 hrs by microbroth serial dilution method. Type of data set: functional. The note with it: time 20-24 hrs, read-out: MIC100.
Data set [4] relates to Staphylococcus aureus. The experiment in a line: Antibacterial activity against methicillin susceptible Staphylococcus aureus ATCC 25923 assessed as inhibition of bacterial growth incubated for 20 to 24 hrs by microbroth serial dilution method. Type of data set: functional. The note with it: time 20-24 hrs, read-out: MIC100.
In data set [5] the test system is Staphylococcus aureus. The experiment in a line: Antibacterial activity against methicillin susceptible Staphylococcus aureus ATCC 29213 assessed as inhibition of bacterial growth incubated for 20 to 24 hrs by microbroth serial dilution method. It is filed as functional. The following applies: time 20-24 hrs, read-out: MIC100.
Data set [6] concerns Staphylococcus aureus. The experiment in a line: Antibacterial activity against methicillin resistant Staphylococcus aureus clinical isolate 52518 assessed as inhibition of bacterial growth incubated for 20 to 24 hrs by microbroth serial dilution method. Type of data set: functional. The note with it: time 20-24 hrs, read-out: MIC100.
The nature of data set [7]: Metabolic stability in mouse liver assessed as intrinsic clearance at 1 uM measured up to 60 mins by LC-MS/MS analysis. Type of data set: ADME, tissue-based. The note with it: read-out: CLH.
Data set [8] in a line: Metabolic stability in mouse liver microsomes assessed as half-life at 1 uM measured up to 60 mins by LC-MS/MS analysis. Type of data set: ADME, Microsome. (Liver microsomes are a subcellular fraction often used to study metabolism.)
The test system of data set [9] is Staphylococcus aureus. The experiment in a line: Antibacterial activity against methicillin resistant Staphylococcus aureus clinical isolate 933010 assessed as inhibition of bacterial growth incubated for 20 to 24 hrs by microbroth serial dilution method. The following applies: time 20-24 hrs, read-out: MIC100. Type of data set: functional.
Data set [10] concerns Staphylococcus aureus. The data set is described as follows: Antibacterial activity against methicillin resistant Staphylococcus aureus clinical isolate 55508 assessed as inhibition of bacterial growth incubated for 20 to 24 hrs by microbroth serial dilution method. It is filed as functional. The note with it: time 20-24 hrs, read-out: MIC100.
In data set [11] the test system is Staphylococcus aureus. The data set is described as follows: Antibacterial activity against mupirocin resistant Staphylococcus aureus 4828 assessed as inhibition of bacterial growth incubated for 20 to 24 hrs by microbroth serial dilution method. It is filed as functional. The note with it: time 20-24 hrs, read-out: MIC100.
Data set [12] is described as follows: Metabolic stability in human liver assessed as intrinsic clearance at 1 uM measured up to 30 mins by LC-MS/MS analysis. It is filed as ADME, tissue-based. The following applies: read-out: CLH.
A short description of data set [13]: Metabolic stability in human liver microsomes assessed as half-life at 1 uM measured up to 30 mins by LC-MS/MS analysis. It is filed as ADME, Microsome.
The test system of another data set is Caco-2. The experiment in a line: Cytotoxicity against human Caco-2 cells assessed as reduction in cell viability at 1 to 10 uM measured after 1 to 8 days by Celltiter-Glo reagent based assay. It is filed as toxicity. The following applies: caco-2, 10 µM, dose lower 1 µM, time lower 1 day, dose upper 10 µM, time upper 8 day. In general terms: In ATP-based viability assays light output follows the ATP content of the culture.

A further data set concerns MDCK-MDR1. The data set is described as follows: Cytotoxicity against MDCKII-MDR1 cells assessed as reduction in cell viability at 1 to 10 uM measured after 3 hrs by Celltiter-Glo reagent based assay. It is filed as toxicity, Canis lupus familiaris. The note with it: dog, mdck-mdr1, 3 h, dose 1-10 µM.
The next data set has as its system DU-145. The experiment in a line: Cytotoxicity against human DU-145 cells assessed as reduction in cell viability at 1 to 10 uM measured after 3 hrs by Celltiter-Glo reagent based assay. The note with it: du-145, 3 h, dose 1-10 µM. It is filed as toxicity.

In brackets after ≈: the same amount, converted by molar mass.

Regarding `C=C[C@]1(C)C[C@@H](OC(=O)Cn2cc(-c3cccc(NC(=O)c4ccc(OC)cc4)c3)nn2)[C@]2(C)[C@H](C)CC[C@]3(CCC(=O)[C@H]32)[C@@H](C)[C@@H]1O`, the MIC in the data set on Enterococcus faecium [1] came out at 0.12 µg/mL (≈ 0.183 µM); in the data set on Streptococcus pneumoniae it was 0.25 µg/mL (≈ 0.382 µM); with Enterococcus faecalis it was 0.5 µg/mL (≈ 0.764 µM); in the data set with Enterococcus faecium [2], 0.25 µg/mL (≈ 0.382 µM); with Staphylococcus aureus [3], 0.12 µg/mL (≈ 0.183 µM).

As for `C=C[C@]1(C)C[C@@H](OC(=O)Cn2cc(-c3ccc(Cn4cnc5c(N)ncnc54)cc3)nn2)[C@]2(C)[C@H](C)CC[C@]3(CCC(=O)[C@H]32)[C@@H](C)[C@@H]1O`, the MIC in the data set with Staphylococcus aureus [4] stood at 0.06 µg/mL (≈ 0.0919 µM); in the data set on Staphylococcus aureus [5], 0.03 µg/mL (≈ 0.046 µM); in the data set with Staphylococcus aureus [6] it was 0.03 µg/mL (≈ 0.046 µM); with Staphylococcus aureus [9], 0.25 µg/mL (≈ 0.383 µM); with Staphylococcus aureus [10], 0.06 µg/mL (≈ 0.0919 µM); in the data set on Staphylococcus aureus [11], 0.06 µg/mL (≈ 0.0919 µM). In addition, in data set [7], the CLint scaled at 1 µM was above 600 L/h/kg. The half-life at 1 µM in data set [8] is below 0.5 min.

Regarding `C=C[C@]1(C)C[C@@H](OC(=O)CS[C@@H]2C[C@H]3CC[C@@H](C2)N3C)[C@]2(C)[C@H](C)CC[C@]3(CCC(=O)[C@H]32)[C@@H](C)[C@@H]1O` [RETAPAMULIN], the MIC was 0.03 µg/mL (≈ 0.0579 µM) in the data set on Enterococcus faecium [1]; 0.06 µg/mL (≈ 0.116 µM) with Streptococcus pneumoniae; 0.12 µg/mL (≈ 0.232 µM) with Enterococcus faecalis; 0.06 µg/mL (≈ 0.116 µM) in the data set with Staphylococcus aureus [4]; 0.12 µg/mL (≈ 0.232 µM) with Staphylococcus aureus [5]; 0.12 µg/mL (≈ 0.232 µM) with Staphylococcus aureus [6]. In addition, the MIC with Staphylococcus aureus [9] was found to be 0.5 µg/mL (≈ 0.966 µM); in the data set with Staphylococcus aureus [10], 0.25 µg/mL (≈ 0.483 µM); in the data set with Staphylococcus aureus [11] it was 0.25 µg/mL (≈ 0.483 µM); in the data set with Enterococcus faecium [2], 0.03 µg/mL (≈ 0.0579 µM); in the data set with Staphylococcus aureus [3] it was 0.25 µg/mL (≈ 0.483 µM). In addition, the CLint scaled at 1 µM turned out to be 159 L/h/kg in [12] and 123 L/h/kg in [7]. Also, the half-life at 1 µM in data set [8] worked out at 1.3 min; in [13] it was 2.4 min.

Turning to `C=C[C@]1(C)C[C@@H](OC(=O)Cn2cc(-c3ccc(Nc4ncnc5[nH]cnc45)cc3)nn2)[C@]2(C)[C@H](C)CC[C@]3(CCC(=O)[C@H]32)[C@@H](C)[C@@H]1O`, the CLint scaled at 1 µM was 17.8 L/h/kg in data set [12] and 187 L/h/kg in data set [7]. Also, the half-life at 1 µM in data set [8] was 1.76 min; in data set [13], 23.4 min. Besides, in the data set on Staphylococcus aureus [3], the MIC was 0.12 µg/mL (≈ 0.188 µM).

As to `C=C[C@]1(C)C[C@@H](OC(=O)Cn2cc(-c3cncc(C(=O)Nc4ccc(OC)nc4)c3)nn2)[C@]2(C)[C@H](C)CC[C@]3(CCC(=O)[C@H]32)[C@@H](C)[C@@H]1O`, the MIC with Enterococcus faecium [1] is 0.12 µg/mL (≈ 0.183 µM); in the data set on Streptococcus pneumoniae, 0.5 µg/mL (≈ 0.761 µM); in the data set with Enterococcus faecalis, 0.12 µg/mL (≈ 0.183 µM); in the data set with Staphylococcus aureus [4] it was 0.12 µg/mL (≈ 0.183 µM); in the data set with Staphylococcus aureus [5], below 0.015 µg/mL; in the data set on Staphylococcus aureus [6] it was 0.06 µg/mL (≈ 0.0914 µM). Further, the MIC in the data set with Staphylococcus aureus [9] came to 0.06 µg/mL (≈ 0.0914 µM); in the data set with Staphylococcus aureus [10], 0.06 µg/mL (≈ 0.0914 µM); in the data set with Staphylococcus aureus [11], 0.03 µg/mL (≈ 0.0457 µM); with Enterococcus faecium [2], 0.12 µg/mL (≈ 0.183 µM); in the data set with Staphylococcus aureus [3], 0.03 µg/mL (≈ 0.0457 µM). Also, the Activity entry in the data set with Caco-2, with MDCK-MDR1 and with DU-145 was “Non-toxic” in each case. The CLint scaled at 1 µM came to 164 L/h/kg in [12] and 566 L/h/kg in [7]. The half-life at 1 µM in [8] turned out to be 0.58 min; in [13] it was 2.3 min.

For the compound `C=C[C@]1(C)C[C@@H](OC(=O)Cn2cc(-c3ccc(C(O)c4ccc5c(N)ncnn45)nc3)nn2)[C@]2(C)[C@H](C)CC[C@]3(CCC(=O)[C@H]32)[C@@H](C)[C@@H]1O` (stereo partly specified), the CLint scaled at 1 µM in data set [12] came to 284 L/h/kg; in data set [7], 447 L/h/kg. For the same compound, the half-life at 1 µM in [8] is 0.74 min; in data set [13] it was 1.3 min. In the data set on Staphylococcus aureus [3], the MIC was 0.03 µg/mL (≈ 0.0449 µM).

Regarding `C=C[C@]1(C)C[C@@H](OC(=O)Cn2cc(-c3ccc(Cn4ccc5c(N)ncnc54)c(OC)c3)nn2)[C@]2(C)[C@H](C)CC[C@]3(CCC(=O)[C@H]32)[C@@H](C)[C@@H]1O`, the values for the CLint scaled at 1 µM in data set [12] and in data set [7] were 310 L/h/kg and 486 L/h/kg, respectively. Further, the half-life at 1 µM in data set [8] was 0.68 min; in [13], 1.2 min. Also, the MIC with Staphylococcus aureus [3] came out at 0.12 µg/mL (≈ 0.176 µM).
